Data on one compound can be found in patent US20100286603A1, “KIT AND METHOD FOR PREPARATION OF A DEGARELIX SOLUTION” (priority 2009, published 2010).

Series [1] can be described thus: Reconstitution of lyophilised Degarelix with water for injection, swirled by hand (laboratory testing). Format: physicochemical. As to the method:
The WFI in the syringe is then transferred into the Degarelix vial (I) and the assembly of vial, needle, and syringe is swirled by hand to ensure that the lyophilised Degarelix has completely gone into solution. […] In laboratory testing, the reconstitution times for hand swirled Degarelix solutions comprising 80 mg and 120 mg of lyophilised Degarelix are about 5 minutes and 7 minutes respectively. The slowest reconstitution times are considerably greater, however, and can be up to 15 minutes. To ensure that the Degarelix drug product has been fully reconstituted, the care-provider is required to swirl the assembly, by hand, for a period of up to 15 minutes. To assess whether the drug has been reconstituted, the care-provider periodically checks the vial to determine whether the solution is completely clear or not.

The nature of series [2]: Reconstitution of lyophilised Degarelix with water for injection using an automatic swirling machine (laboratory tests). Format: physicochemical. The following applies: tested for the 80 mg and 120 mg doses. The method, then:
For example, laboratory tests have shown that average reconstitution times when an automatic swirling machine is used are in the region of 0.8 minutes and the slowest times for reconstitution are in the region of 1.25 to 1.5 minutes (tested for the 80 mg and 120 mg doses). This compares well with the present system of swirling by hand, where the slowest times for reconstitution are near to 15 minutes. An automatic mixing apparatus may enable a reconstitution protocol to be formulated in which the Degarelix and WFI are mixed for a relatively short period of time, after which the Degarelix should in the vast majority of cases have gone into solution, as compared with mixing by hand. It is contemplated that the care-provider may check the clarity of the solution after it has been reconstituted with the automatic mixing apparatus and, if fully reconstituted, administer the solution to the patient.

The test system of the next series is testosterone. The following applies: used in a clinical preparation; cited from earlier work.

Where a SMILES comes first, the peptide text is derived from it. [ ]: non-standard residue; d: D form. The star is where a group is joined. dPhe(4-NHCONH2) = NC(=O)Nc1ccc(C[C@@H](N)C(=O)O)cc1; Dihydroorotyl(S) = O=C1C[C@@H](C(=O)*)NC(=O)N1; dPhe(4-Cl) = N[C@H](Cc1ccc(Cl)cc1)C(=O)O; Phe(4-NH2) = Nc1ccc(C[C@H](N)C(=O)O)cc1; d2Nal = N[C@H](Cc1ccc2ccccc2c1)C(=O)O; Lys(iPr) = CC(C)NCCCC[C@H](N)C(=O)O; d3Pal = N[C@H](Cc1cccnc1)C(=O)O

With `CC(=O)N[C@H](Cc1ccc2ccccc2c1)C(=O)N[C@H](Cc1ccc(Cl)cc1)C(=O)N[C@H](Cc1cccnc1)C(=O)N[C@@H](CO)C(=O)N[C@@H](Cc1ccc(NC(=O)[C@@H]2CC(=O)NC(=O)N2)cc1)C(=O)N[C@H](Cc1ccc(NC(N)=O)cc1)C(=O)N[C@@H](CC(C)C)C(=O)N[C@@H](CCCCNC(C)C)C(=O)N1CCC[C@H]1C(=O)N[C@H](C)C(N)=O` [Degarelix] (Ac-[d2Nal][dPhe(4-Cl)][d3Pal]S[Phe(4-NH2)](Dihydroorotyl(S))[dPhe(4-NHCONH2)]L[Lys(iPr)]P[dA]-NH2), the figures for the reconstitution time result in series [1] (80 mg of lyophilised Degarelix) and in series [1] (120 mg of lyophilised Degarelix) were “about 5 minutes” and about 7 min, respectively. In series [2], this compound came in with an average reconstitution time of about 0.8 min. In the series with testosterone, the levels of testosterone result is reported as “reduction in levels of testosterone”.
